According to PMC11939078, “TAK-994 mechanistic investigation into drug-induced liver injury” (Toxicological Sciences, 2025):

How the values were obtained:
human BSEP = human BSEP (Homo sapiens, UniProt O95342); assay: BSEP inhibition, [3H]TCA uptake into membrane vesicles; format: biochemical; settings: [3H]TCA transport
Protocol: Covalent binding of TAK-994 was assessed by incubating [^14C]TAK-994 with human hepatocytes. The CVB level was determined by relating the total amount of radioactivity (pmol equivalent) to the protein concentration in each sample. Assessment of TAK-994 inhibition potential for the bile salt efflux pump (BSEP) was assessed by incubating [^3H(G)]taurocholic acid with TAK-994 (0 to 100 μM/l) or cyclosporin A after addition of 10 μl of membrane vesicles expressing BSEP or control membrane vesicles. Scintillation counts were assessed in two 5-min cycles.
Membrane vesicles prepared from baculovirus-infected insect cells, expressing human BSEP or controls (Lot Nos. ISAOG29 and IKING23, respectively), were purchased from GenoMembrane Co., Ltd.
The [^3H]TCA reaction mixture (n=42) containing TAK-994 (including 0–100 μM/L TAK-994) or cyclosporin A was pre-incubated at 37°C for 5 minutes. The transport reaction was initiated by addition of 10 μL of membrane vesicles expressing BSEP or control membrane vesicles (0.05 mg protein) to the [^3H]TCA reaction mixture (final [^3H]TCA concentration of 2 μM/L). […] The glass fiber filter was measured for radioactivity using an LSC. […]
The count rates in cpm were corrected to dpm, with the background and counting efficiency assessed using the external standard method described by the manufacturer. […]

human liver microtissues [1] = assay: LPS-sensitization assay in liver microtissues; format: cell-based; settings: for IC50: cellular ATP on Day 14
Protocol: Six replicates were tested for each condition. […] Cellular ATP content was measured in the cell lysate on Day 14 of treatment. LDH release was measured on Days 5, 9, and 14 in the cell supernatant and normalized to lysed controls.
(§1) Intracellular ATP content in model lysates was measured with the CellTiter-Glo® 2.0 Cell Viability Assay (Catalogue No. G9243, Promega). The Bioluminescent LDH Release Toxicity Assay Kit (Catalogue No. J2380, Promega) was used to assess extracellular LDH release and normalized to lysed controls. ATP, LDH, GSH, and triglycerides were measured according to internal technical operating procedures.

Rat = Rat 26-week oral gavage toxicity study; format: in vivo; settings: for Histopathological Liver Findings / ALT / AST / GLDH: rat 26-week; for ALT / AST / GLDH: mean (SD)
Text: TAK-994 performed well in tiered safety screening assays, with wide margins between in vitro IC50 and the predicted efficacious exposures (Table 1). […] Based on the safety profiles observed in these animal studies, TAK-994 progressed into phase I clinical trials.
^aAll dose levels had 15 animals per sex. No statistical difference was observed between the TAK-994 and control groups.

human liver microtissues [2] = assay: Glutathione depletion (BSO) assay in liver microtissues; format: cell-based; settings: for IC50: cellular ATP, 14 days
Protocol: Toxicology of TAK-994 was assessed using lnSphero’s 3D lnSight Human Liver models, based on N-acetyl-L-cysteine causality assay, glutathione depletion assay, and lipopolysaccharide (LPS)-sensitization assay. Hepatotoxicity was assessed in 7- and 14-day mono and co-culture models, in which cells were exposed to TAK-994 (0.1, 0.3, 1, 3.16, 10, 31.6, or 100 μM) […].
Co-culture model cells were pretreated with BSO (150 μM in DMSO) and then exposed to TAK-994 (0.1, 0.3, 1, 3.16, 10, 31.6, or 100 μM in 0.5% DMSO) in the presence and absence of BSO for 14 days (during the treatment period, TAK-994 with or without BSO was administered on Days 0, 5, and 9). Six replicates were tested for each condition. The vehicle control was 0.5% DMSO and the positive control was acetaminophen (0.6, 1.25, 2.5, or 5 mM in Medium TOX). Cellular ATP content was measured in the cell lysate on Day 14 of treatment. LDH release was measured on Days 5, 9, and 14 in the cell supernatant. For cells administered BSO alone, cellular ATP content was also measured on Day 3 and LDH release was also determined between Days 0 to 3. LDH measurements were normalized to lysed controls. Cellular GSH content was measured by GSH-Glo™ Glutathione Assay (Promega) on Days 0, 3, and 14 in the positive control group.
as §1

[3] = system: human liver microtissues + FFA; assay: Hepatotoxicity in steatosis liver model (free fatty acids); format: cell-based; settings: 14 days
Protocol: Mono and co-culture model cells were exposed to TAK-994 (0.1, 0.3, 1, 3.16, 10, 31.6, or 100 μM in 0.5% DMSO) for 14 days (TAK-994 administered on Days 0, 5, and 9). The cell culture medium was supplemented with free fatty acids of 100 μM of Oleic acid and 66 μM of Palmitic acid. Six replicates were tested for each condition. The vehicle control was 0.5% DMSO, and the positive control was chlorpromazine (0.1, 0.3, 1, 3.16, 10, 31.6, or 100 μM in DMSO). Cellular ATP content was measured in the cell lysate on Day 14 of treatment. LDH release was measured in the cell supernatant on Days 5, 9, and 14 and normalized to lysed controls. Cellular triglyceride content was measured in the microtissues on Day 14.
as §1

Chain of human BSEP (O95342 whole entry): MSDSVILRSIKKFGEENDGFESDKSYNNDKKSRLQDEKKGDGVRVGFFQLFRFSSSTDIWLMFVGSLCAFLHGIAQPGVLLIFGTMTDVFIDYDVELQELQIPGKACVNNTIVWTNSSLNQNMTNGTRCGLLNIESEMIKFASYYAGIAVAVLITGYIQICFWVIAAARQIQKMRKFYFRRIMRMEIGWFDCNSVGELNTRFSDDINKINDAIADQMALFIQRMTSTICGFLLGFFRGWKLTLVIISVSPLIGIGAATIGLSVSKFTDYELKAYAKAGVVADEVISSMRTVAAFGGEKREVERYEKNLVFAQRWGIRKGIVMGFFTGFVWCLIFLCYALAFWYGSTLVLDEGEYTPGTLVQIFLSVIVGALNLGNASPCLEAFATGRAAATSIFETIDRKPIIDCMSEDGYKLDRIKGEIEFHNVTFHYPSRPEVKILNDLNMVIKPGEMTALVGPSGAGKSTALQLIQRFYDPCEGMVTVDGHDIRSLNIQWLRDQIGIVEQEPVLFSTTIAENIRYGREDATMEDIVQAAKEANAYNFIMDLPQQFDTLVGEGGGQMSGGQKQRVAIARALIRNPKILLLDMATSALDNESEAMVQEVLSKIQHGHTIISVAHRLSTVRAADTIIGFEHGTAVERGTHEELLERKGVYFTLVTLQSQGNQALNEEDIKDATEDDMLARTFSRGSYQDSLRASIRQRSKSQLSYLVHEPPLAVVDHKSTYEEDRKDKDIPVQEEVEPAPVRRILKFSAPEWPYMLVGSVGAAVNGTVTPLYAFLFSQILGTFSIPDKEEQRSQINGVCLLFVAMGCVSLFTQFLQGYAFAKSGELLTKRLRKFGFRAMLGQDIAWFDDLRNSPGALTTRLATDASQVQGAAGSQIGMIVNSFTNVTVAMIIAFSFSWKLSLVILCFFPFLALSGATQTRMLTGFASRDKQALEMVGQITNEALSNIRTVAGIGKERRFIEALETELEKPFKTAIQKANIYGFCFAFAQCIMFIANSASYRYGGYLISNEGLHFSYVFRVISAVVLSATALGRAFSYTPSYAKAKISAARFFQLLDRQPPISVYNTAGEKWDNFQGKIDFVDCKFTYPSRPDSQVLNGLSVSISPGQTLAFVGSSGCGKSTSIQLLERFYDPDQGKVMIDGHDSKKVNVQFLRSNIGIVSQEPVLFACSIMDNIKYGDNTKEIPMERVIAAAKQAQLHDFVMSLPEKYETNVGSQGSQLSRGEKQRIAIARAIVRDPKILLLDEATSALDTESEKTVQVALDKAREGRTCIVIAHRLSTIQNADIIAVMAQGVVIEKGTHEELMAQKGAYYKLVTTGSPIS

## CC(C)(O)C(=O)N1CC[C@H](NS(C)(=O)=O)[C@@H]1Cc1cccc(-c2cc(F)cc(F)c2)c1F.CC(C)(O)C(=O)N1CC[C@H](NS(C)(=O)=O)[C@@H]1Cc1cccc(-c2cc(F)cc(F)c2)c1F.O.O.O [TAK-994]
Human BSEP
  IC50: 34.1 µM
Human liver microtissues [1]
  sensitization of liver microtissues by LPS (innate immune activation): no direct innate immune-mediated toxicity was observed
Human liver microtissues [1]; read-out: IC50, liver microtissues + LPS (Fig. 5A)
  IC50: > 100 µM
Human liver microtissues [1]; read-out: IC50, liver microtissues without LPS (Fig. 5A)
  IC50: > 100 µM
Rat; female, 50 mg/kg
  Histopathological Liver Findings: No adverse findings
  ALT: 35 (12) IU/L
  AST: 64 (38) IU/L
  GLDH: 41 (78) IU/L
Rat; female, 150 mg/kg
  Histopathological Liver Findings: No adverse findings
  ALT: 37 (8) IU/L
  AST: 53 (13) IU/L
  GLDH: 12 (14) IU/L
Rat; female, 1000 mg/kg
  Histopathological Liver Findings: No adverse findings
  ALT: 44 (14) IU/L
  AST: 51 (6) IU/L
  GLDH: 6 (4) IU/L
Rat; male, 50 mg/kg
  Histopathological Liver Findings: No adverse findings
  ALT: 29 (6) IU/L
  AST: 53 (8) IU/L
  GLDH: 12 (8) IU/L
Rat; male, 150 mg/kg
  Histopathological Liver Findings: No adverse findings
  ALT: 38 (31) IU/L
  AST: 53 (11) IU/L
  GLDH: 12 (7) IU/L
Rat; male, 1000 mg/kg
  Histopathological Liver Findings: No adverse findings
  ALT: 31 (7) IU/L
  AST: 50 (11) IU/L
  GLDH: 7 (4) IU/L
Rat; rats, 6-mo, up to the high dose tested of 1,000 mg/kg
  adverse liver findings, chronic dose toxicity study: no adverse liver findings
Human liver microtissues [2]
  sensitization of liver microtissues by buthionine sulfoximine depletion: no such sensitivity was observed
Human liver microtissues [2]; glutathione depleted, read-out: IC50, liver microtissues + BSO (Fig. 4A)
  IC50: > 100 µM
Human liver microtissues [2]; read-out: IC50, liver microtissues without BSO (Fig. 4A)
  IC50: > 100 µM
[3]
  sensitization of liver microtissues by free fatty acids: no increased sensitivity
